Measurements from PMC12298351, “Novel 3,19-(N-Phenyl-3-(4-fluorophenyl)-pyrazole) Acetal of Andrographolide Promotes Cell Cycle Arrest and Apoptosis in MDA-MB-231 Breast Cancer Cells” (Pharmaceuticals, 2025).

Legend:
DU-145 = details: DU-145, Prostate; for CC50: read-out: 50% lethal concentration (LC50)
NCI-H23 = details: for Total growth inhibition (TGI) / CC50: NCI-H23, Non-Small Cell Lung; for GI50: NCI-H23, Non-Small-Cell Lung; for CC50: read-out: 50% lethal concentration (LC50)
HT29 = details: HT29, Colon; for CC50: read-out: 50% lethal concentration (LC50)
OVCAR-5 = details: OVCAR-5, Ovarian
CAKI-1 = details: CAKI-1, Renal; for CC50: read-out: 50% lethal concentration (LC50)
NCI-H226 = details: for Total growth inhibition (TGI) / CC50: NCI-H226, Non-Small Cell Lung; for GI50: NCI-H226, Non-Small-Cell Lung; for CC50: read-out: 50% lethal concentration (LC50)
IGROV1 = details: IGROV1, Ovarian; for CC50: read-out: 50% lethal concentration (LC50)
EKVX = details: for Total growth inhibition (TGI): Non-Small Cell Lung; for GI50: Non-Small-Cell Lung; for CC50: read-out: 50% lethal concentration (LC50), Non-Small Cell Lung
HOP-62 = details: for Total growth inhibition (TGI) / CC50: HOP-62, Non-Small Cell Lung; for GI50: HOP-62, Non-Small-Cell Lung; for CC50: read-out: 50% lethal concentration (LC50)
UACC-62 = details: UACC-62, Melanoma; for CC50: read-out: 50% lethal concentration (LC50)
UACC-257 = details: UACC-257, Melanoma
NCI-H522 = details: for Total growth inhibition (TGI) / CC50: NCI-H522, Non-Small Cell Lung; for GI50: NCI-H522, Non-Small-Cell Lung; for CC50: read-out: 50% lethal concentration (LC50)
HCT-15 = details: HCT-15, Colon; for CC50: read-out: 50% lethal concentration (LC50)
RXF 393 = details: RXF 393, Renal; for CC50: read-out: 50% lethal concentration (LC50)
CCRF-CEM = details: for GI50 / Total growth inhibition (TGI): Leukemia; for CC50: read-out: 50% lethal concentration (LC50), Leukemia
BT-549 = assay type: cell-based; details: BT-549, Breast
OVCAR-3 = details: OVCAR-3, Ovarian; for CC50: read-out: 50% lethal concentration (LC50)
SR = details: for GI50 / Total growth inhibition (TGI): Leukemia; for CC50: read-out: 50% lethal concentration (LC50), Leukemia
MDA-MB-468 = details: MDA-MB-468, Breast; for CC50: read-out: 50% lethal concentration (LC50)
SK-MEL-2 = details: SK-MEL-2, Melanoma
MDA-MB-435 = details: MDA-MB-435, Melanoma; for CC50: read-out: 50% lethal concentration (LC50)
OVCAR-4 = assay type: cell-based; details: OVCAR-4, Ovarian; for CC50: read-out: 50% lethal concentration (LC50)
A498 = details: A498, Renal; for CC50: read-out: 50% lethal concentration (LC50)
A549/ATCC = details: for Total growth inhibition (TGI): Non-Small Cell Lung; for GI50: Non-Small-Cell Lung; for CC50: read-out: 50% lethal concentration (LC50), Non-Small Cell Lung
NCI-H460 = details: for Total growth inhibition (TGI) / CC50: NCI-H460, Non-Small Cell Lung; for GI50: NCI-H460, Non-Small-Cell Lung; for CC50: read-out: 50% lethal concentration (LC50)
HS 578T = details: for CC50: read-out: 50% lethal concentration (LC50), Breast
HCC-2998 = details: HCC-2998, Colon
SK-OV-3 = details: SK-OV-3, Ovarian; for CC50: read-out: 50% lethal concentration (LC50)
LOX IMVI = details: for GI50 / Total growth inhibition (TGI): Melanoma; for CC50: read-out: 50% lethal concentration (LC50), Melanoma
HOP-92 = details: for Total growth inhibition (TGI) / CC50: HOP-92, Non-Small Cell Lung; for GI50: HOP-92, Non-Small-Cell Lung; for CC50: read-out: 50% lethal concentration (LC50)
[1] = read-out: 50% lethal concentration (LC50)

C=C1CCC2C3(C)COC(c4cn(-c5ccccc5)nc4-c4cccc(Cl)c4)OC3CCC2(C)C1CC=C1C(=O)OCC1O (centres unmarked) [1d]
GI50 (DU-145): 1.88 µM
Total growth inhibition (TGI) (DU-145): 3.98 µM
CC50 (DU-145): 8.43 µM
Total growth inhibition (TGI) (NCI-H23): 3.82 µM
GI50 (NCI-H23): 1.75 µM
CC50 (NCI-H23): 8.31 µM
GI50 (HT29): 1.49 µM
Total growth inhibition (TGI) (HT29): 3.13 µM
CC50 (HT29): 6.57 µM
GI50 (OVCAR-5): 1.78 µM
Total growth inhibition (TGI) (OVCAR-5): 4.21 µM
CC50 (OVCAR-5; [1]): 7.73 µM
GI50 (CAKI-1): 1.32 µM
Total growth inhibition (TGI) (CAKI-1): 2.66 µM
CC50 (CAKI-1): 5.39 µM
Total growth inhibition (TGI) (NCI-H226): 3.37 µM
GI50 (NCI-H226): 1.76 µM
CC50 (NCI-H226): 6.46 µM
GI50 (IGROV1): 1.39 µM
Total growth inhibition (TGI) (IGROV1): 3.22 µM
CC50 (IGROV1): 7.5 µM
Total growth inhibition (TGI) (EKVX): 4.95 µM
GI50 (EKVX): 2.21 µM
CC50 (EKVX): > 100 µM
Total growth inhibition (TGI) (HOP-62): 4.29 µM
GI50 (HOP-62): 1.78 µM
CC50 (HOP-62): > 100 µM
GI50 (UACC-62): 1.71 µM
Total growth inhibition (TGI) (UACC-62): 3.42 µM
CC50 (UACC-62): 6.83 µM
GI50 (UACC-257): 1.77 µM
Total growth inhibition (TGI) (UACC-257): 3.57 µM
Total growth inhibition (TGI) (NCI-H522): 2.95 µM
GI50 (NCI-H522): 1.54 µM
CC50 (NCI-H522): 5.65 µM
GI50 (HCT-15): 1.58 µM
Total growth inhibition (TGI) (HCT-15): 3.47 µM
CC50 (HCT-15): 7.64 µM
GI50 (RXF 393): 1.05 µM
Total growth inhibition (TGI) (RXF 393): 2.31 µM
CC50 (RXF 393): 5.07 µM
GI50 (CCRF-CEM): 1.32 µM
Total growth inhibition (TGI) (CCRF-CEM): 16.3 µM
CC50 (CCRF-CEM): > 100 µM
GI50 (BT-549): 1.57 µM
Total growth inhibition (TGI) (BT-549): 3.63 µM
GI50 (OVCAR-3): 1.6 µM
Total growth inhibition (TGI) (OVCAR-3): 3.09 µM
CC50 (OVCAR-3): 5.95 µM
GI50 (SR): 1.29 µM
Total growth inhibition (TGI) (SR): 4.03 µM
CC50 (SR): > 100 µM
GI50 (MDA-MB-468): 1.74 µM
Total growth inhibition (TGI) (MDA-MB-468): 3.31 µM
CC50 (MDA-MB-468): 6.3 µM
GI50 (SK-MEL-2): 1.57 µM
Total growth inhibition (TGI) (SK-MEL-2): 3.05 µM
GI50 (MDA-MB-435): 1.56 µM
Total growth inhibition (TGI) (MDA-MB-435): 3.19 µM
CC50 (MDA-MB-435): 6.49 µM
GI50 (OVCAR-4): 2.09 µM
CC50 (OVCAR-4): > 100 µM
GI50 (A498): 2.9 µM
Total growth inhibition (TGI) (A498): 11.4 µM
CC50 (A498): 38.1 µM
Total growth inhibition (TGI) (A549/ATCC): 11.3 µM
GI50 (A549/ATCC): 2.82 µM
CC50 (A549/ATCC): 69.1 µM
Total growth inhibition (TGI) (NCI-H460): 3.34 µM
GI50 (NCI-H460): 1.68 µM
CC50 (NCI-H460): 6.66 µM
GI50 (HS 578T; Breast): 1.91 µM
Total growth inhibition (TGI) (HS 578T; Breast): 4.85 µM
CC50 (HS 578T): > 100 µM
GI50 (NCI/ADR-RES; Ovarian): 1.88 µM
Total growth inhibition (TGI) (NCI/ADR-RES; Ovarian): 4.77 µM
CC50 (NCI/ADR-RES; read-out: 50% lethal concentration (LC50), Ovarian): > 100 µM
GI50 (HCC-2998): 1.81 µM
Total growth inhibition (TGI) (HCC-2998): 3.37 µM
GI50 (SK-OV-3): 5.86 µM
Total growth inhibition (TGI) (SK-OV-3): 33.4 µM
CC50 (SK-OV-3): > 100 µM
GI50 (LOX IMVI): 1.61 µM
Total growth inhibition (TGI) (LOX IMVI): 2.97 µM
CC50 (LOX IMVI): 5.5 µM
Total growth inhibition (TGI) (HOP-92): 3.11 µM
GI50 (HOP-92): 1.56 µM
CC50 (HOP-92): 6.2 µM

C=C1CCC2C3(C)COC(c4cn(-c5ccccc5)nc4-c4cccc([N+](=O)[O-])c4)OC3CCC2(C)C1CC=C1C(=O)OCC1O (centres unmarked) [1b]
GI50 (DU-145): 4.11 µM
Total growth inhibition (TGI) (DU-145): 24.3 µM
CC50 (DU-145): > 100 µM
Total growth inhibition (TGI) (NCI-H23): 3.55 µM
GI50 (NCI-H23): 1.83 µM
CC50 (NCI-H23): 6.87 µM
GI50 (HT29): 1.82 µM
Total growth inhibition (TGI) (HT29): 4.26 µM
CC50 (HT29): 9.95 µM
GI50 (OVCAR-5): 2.06 µM
Total growth inhibition (TGI) (OVCAR-5): 5.05 µM
GI50 (CAKI-1): 2.81 µM
Total growth inhibition (TGI) (CAKI-1): > 100 µM
CC50 (CAKI-1): > 100 µM
Total growth inhibition (TGI) (NCI-H226): 6.59 µM
GI50 (NCI-H226): 2.38 µM
CC50 (NCI-H226): > 100 µM
GI50 (IGROV1): 2.08 µM
Total growth inhibition (TGI) (IGROV1): 4.27 µM
CC50 (IGROV1): 8.76 µM
Total growth inhibition (TGI) (EKVX): 7.98 µM
GI50 (EKVX): 2.75 µM
CC50 (EKVX): > 100 µM
Total growth inhibition (TGI) (HOP-62): 12.4 µM
GI50 (HOP-62): 3.15 µM
CC50 (HOP-62): > 100 µM
GI50 (UACC-62): 1.69 µM
Total growth inhibition (TGI) (UACC-62): 3.46 µM
CC50 (UACC-62): 7.06 µM
GI50 (UACC-257): 1.8 µM
Total growth inhibition (TGI) (UACC-257): 3.68 µM
CC50 (UACC-257; [1]): 7.53 µM
Total growth inhibition (TGI) (NCI-H522): 3.41 µM
GI50 (NCI-H522): 1.75 µM
CC50 (NCI-H522): 6.65 µM
GI50 (HCT-15): 1.74 µM
Total growth inhibition (TGI) (HCT-15): 3.58 µM
CC50 (HCT-15): 7.37 µM
GI50 (RXF 393): 1.62 µM
Total growth inhibition (TGI) (RXF 393): 3.2 µM
CC50 (RXF 393): 6.32 µM
GI50 (CCRF-CEM): 1.14 µM
Total growth inhibition (TGI) (CCRF-CEM): 5.01 µM
CC50 (CCRF-CEM): > 100 µM
GI50 (BT-549): 1.94 µM
Total growth inhibition (TGI) (BT-549): 3.8 µM
GI50 (OVCAR-3): 1.87 µM
Total growth inhibition (TGI) (OVCAR-3): 3.75 µM
CC50 (OVCAR-3): 7.55 µM
GI50 (SR): 3.46 µM
Total growth inhibition (TGI) (SR): > 100 µM
CC50 (SR): > 100 µM
GI50 (MDA-MB-468): 1.76 µM
Total growth inhibition (TGI) (MDA-MB-468): 3.52 µM
CC50 (MDA-MB-468): 7 µM
GI50 (SK-MEL-2): 1.78 µM
Total growth inhibition (TGI) (SK-MEL-2): 3.51 µM
CC50 (SK-MEL-2; [1]): 6.94 µM
GI50 (MDA-MB-435): 3.03 µM
Total growth inhibition (TGI) (MDA-MB-435): 18.3 µM
CC50 (MDA-MB-435): > 100 µM
GI50 (OVCAR-4): 4.05 µM
Total growth inhibition (TGI) (OVCAR-4): > 100 µM
CC50 (OVCAR-4): > 100 µM
GI50 (A498): 1.9 µM
Total growth inhibition (TGI) (A498): 45.4 µM
CC50 (A498): > 100 µM
Total growth inhibition (TGI) (A549/ATCC): > 100 µM
GI50 (A549/ATCC): 3.62 µM
CC50 (A549/ATCC): > 100 µM
Total growth inhibition (TGI) (NCI-H460): 4.8 µM
GI50 (NCI-H460): 2.27 µM
CC50 (NCI-H460): 11.3 µM
GI50 (HS 578T; Breast): 2.69 µM
CC50 (HS 578T): > 100 µM
GI50 (NCI/ADR-RES; Ovarian): 2.98 µM
GI50 (HCC-2998): 1.92 µM
Total growth inhibition (TGI) (HCC-2998): 3.53 µM
CC50 (HCC-2998; [1]): 6.48 µM
GI50 (SK-OV-3): 2.08 µM
Total growth inhibition (TGI) (SK-OV-3): > 100 µM
CC50 (SK-OV-3): > 100 µM
GI50 (LOX IMVI): 1.72 µM
Total growth inhibition (TGI) (LOX IMVI): 3.34 µM
CC50 (LOX IMVI): 6.48 µM
Total growth inhibition (TGI) (HOP-92): 3.64 µM
GI50 (HOP-92): 1.86 µM
CC50 (HOP-92): 7.11 µM
